Results: patent US10294202B2, “Pyrrolidinones as herbicides” (FMC Corporation, priority 2013, dated 2019)

Experiments:
corn = assay: Test A pre-/postemergence herbicide test; assay type: in vivo, Zea mays; details: Postemergence
Method in brief: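 Directed soil spray to seeded pots (preemergence) or spray onto one- to two-leaf seedlings 2–10 cm tall (postemergence); loam/sand substrate throughout. Evaluated visually after about 10 days against untreated plants, 0 = no effect, 100 = complete control.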

rice = assay: Test B flooded paddy test; assay type: in vivo, Oryza sativa; details: 500 g ai/ha, Flood; scale of 0 to 100 where 0 is no effect and 100 is complete control
Method in brief: (§1)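 Paddy-water application at a 3 cm flood, young plants having two leaves. Water level maintained; greenhouse, 13–15 days; visual 0–100 control rating.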

sedge, umbrella = assay: Test B flooded paddy test; assay type: in vivo, Cyperus difformis; details: 500 g ai/ha, Flood; scale of 0 to 100 where 0 is no effect and 100 is complete control
Method in brief: as §1

ducksalad = assay: Test B flooded paddy test; assay type: in vivo, Heteranthera limosa; details: 500 g ai/ha, Flood; scale of 0 to 100 where 0 is no effect and 100 is complete control
Method in brief: as §1

barnyardgrass = assay: Test B flooded paddy test; assay type: in vivo, Echinochloa crus-galli; details: 500 g ai/ha, Flood; scale of 0 to 100 where 0 is no effect and 100 is complete control
Method in brief: as §1

blackgrass = assay: Test C pre-/postemergence herbicide test; assay type: in vivo, Alopecurus myosuroides
Method in brief: (§2)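 Two application timings ran in parallel with identically formulated test chemicals (non-phytotoxic solvent, surfactant included): spray on seeded loam–sand soil, and spray on emerged plants 2 to 18 cm high. Evaluation at 13 to 15 days compared each species with controls, rated from 0 up to 100.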

ryegrass, Italian = assay: Test C pre-/postemergence herbicide test; assay type: in vivo, Lolium multiflorum
Method in brief: as §2

crabgrass, large = assay: Test C pre-/postemergence herbicide test; assay type: in vivo, Digitaria sanguinalis
Method in brief: as §2

soybean = assay: Test C pre-/postemergence herbicide test; assay type: in vivo, Glycine max
Method in brief: as §2

oilseed rape = assay: Test C pre-/postemergence herbicide test; assay type: in vivo, Brassica napus
Method in brief: as §2

waterhemp = assay: Test C pre-/postemergence herbicide test; assay type: in vivo, Amaranthus rudis
Method in brief: as §2

velvetleaf = assay: Test C pre-/postemergence herbicide test; assay type: in vivo, Abutilon theophrasti
Method in brief: as §2

[1] = 125 g ai/ha, visual rating on 0 to 100 scale (0 no effect, 100 complete control), approx. 10 days
[2] = 500 g ai/ha, 0 to 100 scale (0 no effect, 100 complete control)
[3] = Postemergence, 31 g ai/ha, scale 0 to 100 (0 no effect, 100 complete control)
[4] = Postemergence, 62 g ai/ha, scale 0 (no effect) to 100 (complete control)
[5] = Postemergence, 125 g ai/ha, scale 0 to 100 (0 no effect, 100 complete control)
[6] = Postemergence, 250 g ai/ha, scale 0 to 100 (0 no effect, 100 complete control)
[7] = Preemergence, 31 g ai/ha, scale 0 to 100, 0 is no effect and 100 is complete control
[8] = Preemergence, 62 g ai/ha, scale 0 to 100 (0 no effect, 100 complete control)
[9] = Preemergence, 125 g ai/ha, scale 0 to 100
[10] = Postemergence, 16 g ai/ha, scale 0 to 100 (0 no effect, 100 complete control)
[11] = Preemergence, 125 g ai/ha, scale 0 to 100 (0 no effect, 100 complete control)
[12] = Preemergence, 16 g ai/ha, scale 0 to 100

O=C1NCC(c2cccc(OC(F)F)c2)C1C(=O)Nc1cccc(F)c1F (centres unmarked) [Compound 324]
Plant response rating, Corn (corn; [1]): 50
Plant response rating, Corn (corn; [2]): 90
Plant response rating, Rice (rice): 30
Plant response rating, Sedge, Umbrella (sedge, umbrella): 0
Plant response rating, Ducksalad (ducksalad): 100
Plant response rating, Barnyardgrass (barnyardgrass): 80
Plant response rating, Blackgrass (blackgrass; [3]): 0
Plant response rating, Blackgrass (blackgrass; [4]): 0
Plant response rating, Blackgrass (blackgrass; [5]): 0
Plant response rating, Blackgrass (blackgrass; [6]): 0
Blackgrass plant response rating (blackgrass; [7]): 100
Blackgrass plant response rating (blackgrass; [8]): 30
Plant response rating, Blackgrass (blackgrass; [9]): 70
Plant response rating (scale of 0 to 100), Blackgrass (blackgrass; Preemergence, 250 g ai/ha): 95
Plant response rating, Ryegrass, Italian (ryegrass, Italian; [3]): 0
Plant response rating, Ryegrass, Italian (ryegrass, Italian; [4]): 0
Plant response rating, Ryegrass, Italian (ryegrass, Italian; [5]): 0
Plant response rating, Ryegrass, Italian (ryegrass, Italian; [6]): 0
Ryegrass, Italian plant response rating (ryegrass, Italian; [8]): 10
Plant response rating, Ryegrass, Italian (ryegrass, Italian; [9]): 35
Plant response rating, Crabgrass, Large (crabgrass, large; [3]): 25
Plant response rating, Crabgrass, Large (crabgrass, large; [4]): 60
Plant response rating, Crabgrass, Large (crabgrass, large; [5]): 70
Plant response rating, Crabgrass, Large (crabgrass, large; [6]): 75
Crabgrass, Large plant response rating (crabgrass, large; [7]): 95
Crabgrass, Large plant response rating (crabgrass, large; [8]): 95
Plant response rating, Crabgrass, Large (crabgrass, large; [9]): 98
Plant response rating (scale of 0 to 100), Crabgrass, Large (crabgrass, large; Preemergence, 250 g ai/ha): 98
Plant response rating, Soybean (soybean; [3]): 0
Plant response rating, Soybean (soybean; [4]): 5
Plant response rating, Soybean (soybean; [5]): 0
Plant response rating, Soybean (soybean; [6]): 0
Soybean plant response rating (soybean; [8]): 0
Plant response rating, Soybean (soybean; [9]): 0
Plant response rating, Oilseed Rape (oilseed rape; [3]): 0
Plant response rating, Oilseed Rape (oilseed rape; [4]): 0
Plant response rating, Oilseed Rape (oilseed rape; [5]): 0
Plant response rating, Oilseed Rape (oilseed rape; [6]): 0
Oilseed Rape plant response rating (oilseed rape; [7]): 0
Oilseed Rape plant response rating (oilseed rape; [8]): 70
Plant response rating, Oilseed Rape (oilseed rape; [9]): 85
Plant response rating (scale of 0 to 100), Oilseed Rape (oilseed rape; Preemergence, 250 g ai/ha): 90
Plant response rating, Waterhemp (waterhemp; [3]): 0
Plant response rating, Waterhemp (waterhemp; [4]): 10
Plant response rating, Waterhemp (waterhemp; [5]): 20
Plant response rating, Waterhemp (waterhemp; [6]): 40
Waterhemp plant response rating (waterhemp; [8]): 70
Plant response rating, Waterhemp (waterhemp; [9]): 80
Plant response rating, Velvetleaf (velvetleaf; [3]): 0
Plant response rating, Velvetleaf (velvetleaf; [4]): 55
Plant response rating, Velvetleaf (velvetleaf; [5]): 50
Plant response rating, Velvetleaf (velvetleaf; [6]): 55
Velvetleaf plant response rating (velvetleaf; [8]): 35
Plant response rating, Velvetleaf (velvetleaf; [9]): 40

CN1CC(c2cccc(C(F)(F)F)c2)C(C(=O)Nc2ccccc2F)C1=O (centres unmarked) [Compound 277]
Plant response rating, Corn (corn; 125 g ai/ha, 0 to 100 scale, 0 is no effect, 100 is complete control): 90
Plant response rating, Corn (corn; [2]): 90
Plant response rating, Rice (rice): 0
Plant response rating, Sedge, Umbrella (sedge, umbrella): 0
Plant response rating, Ducksalad (ducksalad): 100
Plant response rating, Barnyardgrass (barnyardgrass): 90
Plant response rating, Blackgrass (blackgrass; [10]): 0
Plant response rating, Blackgrass (blackgrass; [3]): 0
Plant response rating, Blackgrass (blackgrass; [4]): 0
Plant response rating, Blackgrass (blackgrass; [5]): 0
Blackgrass plant response rating (blackgrass; [7]): 70
Blackgrass plant response rating (blackgrass; [8]): 70
Plant response rating, Blackgrass (blackgrass; [11]): 90
Plant response rating, Blackgrass (blackgrass; [12]): 40
Plant response rating, Ryegrass, Italian (ryegrass, Italian; [10]): 0
Plant response rating, Ryegrass, Italian (ryegrass, Italian; [3]): 0
Plant response rating, Ryegrass, Italian (ryegrass, Italian; [4]): 5
Plant response rating, Ryegrass, Italian (ryegrass, Italian; [5]): 35
Ryegrass, Italian plant response rating (ryegrass, Italian; [7]): 40
Ryegrass, Italian plant response rating (ryegrass, Italian; [8]): 35
Plant response rating, Ryegrass, Italian (ryegrass, Italian; [11]): 40
Plant response rating, Ryegrass, Italian (ryegrass, Italian; [12]): 30
Plant response rating, Crabgrass, Large (crabgrass, large; [10]): 5
Plant response rating, Crabgrass, Large (crabgrass, large; [3]): 15
Plant response rating, Crabgrass, Large (crabgrass, large; [4]): 65
Plant response rating, Crabgrass, Large (crabgrass, large; [5]): 70
Crabgrass, Large plant response rating (crabgrass, large; [7]): 98
Crabgrass, Large plant response rating (crabgrass, large; [8]): 100
Plant response rating, Crabgrass, Large (crabgrass, large; [11]): 100
Plant response rating, Crabgrass, Large (crabgrass, large; [12]): 95
Plant response rating, Soybean (soybean; [10]): 0
Plant response rating, Soybean (soybean; [3]): 0
Plant response rating, Soybean (soybean; [4]): 0
Plant response rating, Soybean (soybean; [5]): 0
Soybean plant response rating (soybean; [7]): 0
Soybean plant response rating (soybean; [8]): 0
Plant response rating, Soybean (soybean; [11]): 5
Plant response rating, Soybean (soybean; [12]): 0
Plant response rating, Oilseed Rape (oilseed rape; [10]): 0
Plant response rating, Oilseed Rape (oilseed rape; [3]): 0
Plant response rating, Oilseed Rape (oilseed rape; [4]): 0
Plant response rating, Oilseed Rape (oilseed rape; [5]): 0
Oilseed Rape plant response rating (oilseed rape; [7]): 0
Oilseed Rape plant response rating (oilseed rape; [8]): 0
Plant response rating, Oilseed Rape (oilseed rape; [11]): 80
Plant response rating, Oilseed Rape (oilseed rape; [12]): 0
Plant response rating, Waterhemp (waterhemp; [10]): 5
Plant response rating, Waterhemp (waterhemp; [3]): 5
Plant response rating, Waterhemp (waterhemp; [4]): 5
Plant response rating, Waterhemp (waterhemp; [5]): 5
Waterhemp plant response rating (waterhemp; [7]): 35
Waterhemp plant response rating (waterhemp; [8]): 50
Plant response rating, Waterhemp (waterhemp; [11]): 55
Plant response rating, Waterhemp (waterhemp; [12]): 0
Plant response rating, Velvetleaf (velvetleaf; [10]): 0
Plant response rating, Velvetleaf (velvetleaf; [3]): 0
Plant response rating, Velvetleaf (velvetleaf; [4]): 0
Plant response rating, Velvetleaf (velvetleaf; [5]): 15
Velvetleaf plant response rating (velvetleaf; [7]): 0
Velvetleaf plant response rating (velvetleaf; [8]): 0
Plant response rating, Velvetleaf (velvetleaf; [11]): 35
Plant response rating, Velvetleaf (velvetleaf; [12]): 0

O=C1NCC(c2cccc(OC(F)F)c2)C1C(=O)Nc1ccc(F)c(F)c1F (centres unmarked) [Compound 325]
Plant response rating, Corn (corn; [1]): 80
Plant response rating, Corn (corn; [2]): 80
Plant response rating, Rice (rice): 20
Plant response rating, Sedge, Umbrella (sedge, umbrella): 40
Plant response rating, Ducksalad (ducksalad): 100
Plant response rating, Barnyardgrass (barnyardgrass): 70
Plant response rating, Blackgrass (blackgrass; [3]): 0
Plant response rating, Blackgrass (blackgrass; [4]): 0
Plant response rating, Blackgrass (blackgrass; [5]): 0
Plant response rating, Blackgrass (blackgrass; [6]): 35
Blackgrass plant response rating (blackgrass; [7]): 5
Blackgrass plant response rating (blackgrass; [8]): 50
Plant response rating, Blackgrass (blackgrass; [9]): 70
Plant response rating (scale of 0 to 100), Blackgrass (blackgrass; Preemergence, 250 g ai/ha): 85
Plant response rating, Ryegrass, Italian (ryegrass, Italian; [3]): 0
Plant response rating, Ryegrass, Italian (ryegrass, Italian; [4]): 0
Plant response rating, Ryegrass, Italian (ryegrass, Italian; [5]): 0
Plant response rating, Ryegrass, Italian (ryegrass, Italian; [6]): 30
Ryegrass, Italian plant response rating (ryegrass, Italian; [8]): 40
Plant response rating, Ryegrass, Italian (ryegrass, Italian; [9]): 50
Plant response rating, Crabgrass, Large (crabgrass, large; [3]): 55
Plant response rating, Crabgrass, Large (crabgrass, large; [4]): 65
Plant response rating, Crabgrass, Large (crabgrass, large; [5]): 65
Plant response rating, Crabgrass, Large (crabgrass, large; [6]): 85
Crabgrass, Large plant response rating (crabgrass, large; [7]): 95
Crabgrass, Large plant response rating (crabgrass, large; [8]): 95
Plant response rating, Crabgrass, Large (crabgrass, large; [9]): 95
Plant response rating (scale of 0 to 100), Crabgrass, Large (crabgrass, large; Preemergence, 250 g ai/ha): 100
Plant response rating, Soybean (soybean; [3]): 0
Plant response rating, Soybean (soybean; [4]): 0
Plant response rating, Soybean (soybean; [5]): 0
Plant response rating, Soybean (soybean; [6]): 0
Soybean plant response rating (soybean; [8]): 0
Plant response rating, Soybean (soybean; [9]): 0
Plant response rating, Oilseed Rape (oilseed rape; [3]): 0
Plant response rating, Oilseed Rape (oilseed rape; [4]): 0
Plant response rating, Oilseed Rape (oilseed rape; [5]): 50
Plant response rating, Oilseed Rape (oilseed rape; [6]): 60
Oilseed Rape plant response rating (oilseed rape; [7]): 0
Oilseed Rape plant response rating (oilseed rape; [8]): 65
Plant response rating, Oilseed Rape (oilseed rape; [9]): 85
Plant response rating (scale of 0 to 100), Oilseed Rape (oilseed rape; Preemergence, 250 g ai/ha): 90
Plant response rating, Waterhemp (waterhemp; [3]): 0
Plant response rating, Waterhemp (waterhemp; [4]): 0
Plant response rating, Waterhemp (waterhemp; [5]): 25
Plant response rating, Waterhemp (waterhemp; [6]): 35
Waterhemp plant response rating (waterhemp; [8]): 75
Plant response rating, Waterhemp (waterhemp; [9]): 80
Plant response rating, Velvetleaf (velvetleaf; [3]): 0
Plant response rating, Velvetleaf (velvetleaf; [4]): 15
Plant response rating, Velvetleaf (velvetleaf; [5]): 20
Plant response rating, Velvetleaf (velvetleaf; [6]): 40
Velvetleaf plant response rating (velvetleaf; [8]): 35
Plant response rating, Velvetleaf (velvetleaf; [9]): 55
